Measurements as given in the supplement of paper PMC10307832.

What was measured:
Assay in all cases: relative viability (nuclei count vs DMSO), 5 days (fraction); higher = more cells survive
NCI-H1993 = system: NCI-H1993
Procedure, shortened: (§1)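 Five library-drug doses in √10 steps were combined with a fixed anchor-drug dose, or a single drug was given alone, by pin tool to lung cancer cell lines in 1536-well plates the day after seeding. Nuclei were stained and counted after 5 days. Relative viability is the nuclei count in treated wells over that in vehicle wells, taken as the median of duplicate plates.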

NCI-H2405 = system: NCI-H2405
Procedure, shortened: as §1

NCI-H2085 = system: NCI-H2085
Procedure, shortened: as §1

SK-MES-1 = system: SK-MES-1
Procedure, shortened: as §1

NCI-H1355 = system: NCI-H1355
Procedure, shortened: as §1

NCI-H1793 = system: NCI-H1793
Procedure, shortened: as §1

UMC-11 = system: UMC-11
Procedure, shortened: as §1

LCLC-103H = system: LCLC-103H
Procedure, shortened: as §1

NCI-H1395 = system: NCI-H1395
Procedure, shortened: as §1

NCI-H23 = system: NCI-H23
Procedure, shortened: as §1

EPLC-272H = system: EPLC-272H
Procedure, shortened: as §1

LCLC-97TM1 = system: LCLC-97TM1
Procedure, shortened: as §1

## Clc1ccc(Nc2nnc(Cc3ccncc3)c3ccccc23)cc1 [Vatalanib] + O=C(CCCCCCC(=O)Nc1ccccc1)NO [Vorinostat] (partner 1 µM)
NCI-H1993; first compound 0.04 µM
  relative viability: 0.728
NCI-H1993; first compound 0.1265 µM
  relative viability: 0.795
NCI-H1993; first compound 0.4 µM
  relative viability: 0.806
NCI-H1993; first compound 1.265 µM
  relative viability: 0.709
NCI-H1993; first compound 4 µM
  relative viability: 0.726
NCI-H2405; first compound 0.04 µM
  relative viability: 1.09
NCI-H2405; first compound 0.1265 µM
  relative viability: 0.938
NCI-H2405; first compound 0.4 µM
  relative viability: 1.06
NCI-H2405; first compound 4 µM
  relative viability: 0.976
NCI-H2085; first compound 0.04 µM
  relative viability: 0.868
NCI-H2085; first compound 0.1265 µM
  relative viability: 0.796
NCI-H2085; first compound 0.4 µM
  relative viability: 0.852
NCI-H2085; first compound 1.265 µM
  relative viability: 0.747
NCI-H2085; first compound 4 µM
  relative viability: 0.702
SK-MES-1; first compound 0.04 µM
  relative viability: 1.13
SK-MES-1; first compound 0.1265 µM
  relative viability: 1.11
SK-MES-1; first compound 0.4 µM
  relative viability: 1.12
SK-MES-1; first compound 1.265 µM
  relative viability: 0.98
SK-MES-1; first compound 4 µM
  relative viability: 0.985
NCI-H1355; first compound 0.04 µM
  relative viability: 0.684
NCI-H1355; first compound 0.1265 µM
  relative viability: 0.691
NCI-H1355; first compound 0.4 µM
  relative viability: 0.727
NCI-H1355; first compound 1.265 µM
  relative viability: 0.57
NCI-H1355; first compound 4 µM
  relative viability: 0.581
NCI-H1793; first compound 0.04 µM
  relative viability: 0.767
NCI-H1793; first compound 0.1265 µM
  relative viability: 0.845
NCI-H1793; first compound 0.4 µM
  relative viability: 0.97
NCI-H1793; first compound 1.265 µM
  relative viability: 0.66
NCI-H1793; first compound 4 µM
  relative viability: 0.71
UMC-11; first compound 0.04 µM
  relative viability: 0.361
UMC-11; first compound 0.1265 µM
  relative viability: 0.469
UMC-11; first compound 0.4 µM
  relative viability: 0.384
UMC-11; first compound 1.265 µM
  relative viability: 0.35
UMC-11; first compound 4 µM
  relative viability: 0.415
LCLC-103H; first compound 0.04 µM
  relative viability: 0.776
LCLC-103H; first compound 0.1265 µM
  relative viability: 0.765
LCLC-103H; first compound 0.4 µM
  relative viability: 0.826
LCLC-103H; first compound 1.265 µM
  relative viability: 0.738
LCLC-103H; first compound 4 µM
  relative viability: 0.726
NCI-H1395; first compound 0.04 µM
  relative viability: 0.71
NCI-H1395; first compound 0.1265 µM
  relative viability: 0.55
NCI-H1395; first compound 0.4 µM
  relative viability: 0.6
NCI-H1395; first compound 4 µM
  relative viability: 0.726
NCI-H23; first compound 0.04 µM
  relative viability: 0.57
NCI-H23; first compound 0.1265 µM
  relative viability: 0.558
NCI-H23; first compound 0.4 µM
  relative viability: 0.77
NCI-H23; first compound 1.265 µM
  relative viability: 0.495
NCI-H23; first compound 4 µM
  relative viability: 0.546
EPLC-272H; first compound 0.04 µM
  relative viability: 0.438
EPLC-272H; first compound 0.1265 µM
  relative viability: 0.702
EPLC-272H; first compound 0.4 µM
  relative viability: 0.499
EPLC-272H; first compound 1.265 µM
  relative viability: 0.617
EPLC-272H; first compound 4 µM
  relative viability: 0.561
LCLC-97TM1; first compound 0.04 µM
  relative viability: 0.601
LCLC-97TM1; first compound 0.1265 µM
  relative viability: 0.613
